Values of other authors as cited in US20220265566A1, “ATOVAQUONE NANOPARTICULATE COMPOSITIONS” (Tulex Pharmaceuticals Inc., priority 2018, published 2022).

Solubility in water: practically insoluble in water
SMILES: O=C1C(O)=C([C@H]2CC[C@H](c3ccc(Cl)cc3)CC2)C(=O)c2ccccc21 [ATQ, trans-2-[4-(4-chlorophenyl)cyclohexyl]-3-hydroxy-1,4-naphthalenedione]
